Reference: patent publication US11091483B2, “Protein kinase regulators” (Nanjing Gator Meditech Company, Ltd., priority 2016, dated 2021)
Where two headings read alike, the source gives them in different places.

Tests used:
[1] = tested on: HCT116 (human colon cancer); test: CCK-8 cell viability assay on HCT116 cells; assay type: cell-based; conditions: HCT-116, 48 h
Description: (§1) The plate is incubated for 48 hours.
(§2) CCK-8 solution is added directly to the cells.

[2] = tested on: MDA-MB-231 (MDA 231, human breast adenocarcinoma); test: CCK-8 cell viability assay on MDA-MB-231 cells; assay type: cell-based
Description: as §1, §2

[3] = tested on: pAkt (phosphorylated form of Akt); test: Western blots on A549 cells after 72 hours; conditions: western blot
Description: The following kinases were examined: Akt, pAkt, Mek1, Mek2, Erk2, pErk2 and c-Myc. In addition, Induced myeloid leukemia cell differentiation protein (Mcl-1) was also evaluated.

[4] = Pharmacokinetic properties in a mouse; conditions: for Oral Bioavailability (% F): i.v. 2 mg/kg and oral 10 mg/kg; for AUC(0-inf): plasma, po, 10 mg/kg
Description: (§3) Each compound was formulated and administered to a mouse. Blood was taken at specific time points (0.25 h, 0.5 h, 1 h, 2 h, 4 h, 8 h, and 24 h) and evaluated for the drug administered by LC/MS. Each compound was administered i.v. at 2 mg/kg and also evaluated by oral administration (gavage) at 10 mg/kg (Formulation: 5% DMSO+95% HP-β-CD (20%, W/V) yielding a solution). […] In addition, percent oral bioavailability or % F is a measure of the percent of the drug given orally that is in systemic circulation in the plasma.

in vivo = conditions: mouse, po, 10 mg/kg
Description: as §3

[5] = HCT116, 48 hours incubation, CCK-8, read-out: IC50 (uM, HCT116)
[6] = MDA-MB-231, 48 hours incubation, CCK-8, read-out: IC50 (uM, MDA 231)

In the case of `O=C1C2=C(CCN(Cc3ccccc3)C2)N2CCN=C2N1Cc1ccc(C(F)(F)F)cc1` [Compound 2], the IC50 [1, 5] is reported as 0.03 µM, the IC50 [2, 6] is reported as 0.05 µM and the “concentration providing similar reductions in pAkt” value [3] is reported as 0.037 uM.
In the case of `C#Cc1cccc(CN2CCC3=C(C2)C(=O)N(Cc2ccc(Cl)cc2)C2=NCCN23)c1` [Compound 4], the “Oral Bioavailability (% F)” value [4] is reported as 33 % F, the AUC(0-inf) [4] is reported as 255 ng·h/mL and the IC50 [1, 5] is reported as 0.082 µM. It also gave an IC50 [2, 6] of 0.069 µM.
Work on `Cc1cccc(CN2C(=O)C3=C(CCN(Cc4ccccc4)C3)N3C2=NC2CCCCC23)c1` (stereo not drawn) [Compound 5] yielded an IC50 [1, 5] of 1.3 µM and an IC50 [2, 6] of 0.069 µM.
With `O=C1C2=C(CCN(Cc3ccccc3)C2)N2CCN=C2N1Cc1ccccc1C(F)(F)F` [Compound 6] the IC50 [1, 5] was 1.4 µM and the IC50 [2, 6] was 1.2 µM.
Work on `O=C1C2=C(CCN(Cc3ccccc3)C2)N2CCN=C2N1Cc1cccc(C(F)(F)F)c1` [Compound 7] yielded an IC50 [1, 5] of 0.24 µM and an IC50 [2, 6] of 0.4 µM.
Molecule `C#Cc1cccc(CN2CCC3=C(C2)C(=O)N(Cc2ccc(OC(F)(F)F)cc2)C2=NCCN23)c1` [Compound 8] has an IC50 [1, 5] of 1.8 µM and an IC50 [2, 6] of 0.88 µM.
`O=C1C2=C(CCN(Cc3ccccc3)C2)N2CCN=C2N1Cc1ccc(Cl)c(Cl)c1` [Compound 9] gave an IC50 [1, 5] of 0.08 µM and an IC50 [2, 6] of 0.12 µM.
In the case of `Cc1ccccc1CN1C(=O)C2=C(CCN(Cc3ccccc3Br)C2)N2CCN=C12` [Compound 10], the IC50 [1, 5] is reported as greater than 25 µM and the IC50 [2, 6] is reported as greater than 25 µM.
In the case of `Cc1ccccc1CN1C(=O)C2=C(CCN(Cc3cccc(Br)c3)C2)N2CCN=C12` [Compound 11], the IC50 [1, 5] is reported as 0.72 µM and the IC50 [2, 6] is reported as 0.74 µM.
Work on `C#Cc1cccc(CN2CCC3=C(C2)C(=O)N(Cc2ccc(C(F)(F)F)cc2)C2=NCCN23)c1` [Compound 12] yielded an IC50 [1, 5] of 0.22 µM and an IC50 [2, 6] of 0.22 µM.
In the case of `C#Cc1cccc(CN2CCC3=C(C2)C(=O)N(Cc2ccc(Br)cc2)C2=NCCN23)c1` [Compound 13], the IC50 [1, 5] is reported as 0.28 µM and the IC50 [2, 6] is reported as 0.28 µM.
In the case of `N#Cc1cccc(CN2CCC3=C(C2)C(=O)N(Cc2ccc(Cl)cc2)C2=NCCN23)c1` [Compound 14], the IC50 [1, 5] is reported as 0.011 µM and the IC50 [2, 6] is reported as 0.024 µM.
`N#Cc1cccc(CN2CCC3=C(C2)C(=O)N(Cc2ccc(C(F)(F)F)cc2)C2=NCCN23)c1` [Compound 15] showed an IC50 [1, 5] of 0.007 µM and an IC50 [2, 6] of 0.024 µM.
For `O=C1C2=C(CCN(Cc3cccc(F)c3)C2)N2CCN=C2N1Cc1ccc(Br)cc1` [Compound 17], the IC50 [1, 5] was 0.023 µM and the IC50 [2, 6] was 0.064 µM.
With `O=C1C2=C(CCN(Cc3cccc(F)c3)C2)N2CCN=C2N1Cc1ccc(C(F)(F)F)cc1` [Compound 18] the “Oral Bioavailability (% F)” value [4] was 27 % F, the AUC(0-inf) [4] was 823 ng·h/mL and the IC50 [1, 5] was 0.022 µM. It also gave an IC50 [2, 6] of 0.078 µM.
For `[2H]c1c([2H])c([2H])c(C([2H])([2H])N2CCC3=C(C2)C(=O)N(Cc2ccc(C(F)(F)F)cc2)C2=NCCN23)c([2H])c1[2H]` [Compound 19], the “Oral Bioavailability (% F)” value [4] was 60 % F, the AUC(0-inf) [4] was 604 ng·h/mL and the IC50 [1, 5] was 0.089 µM.
With `O=C1C2=C(CCN(Cc3ccccc3)C2)N2CCN=C2N1Cc1ccc(OC(F)(F)F)cc1` [Compound 20] the IC50 [1, 5] was 0.37 µM and the IC50 [2, 6] was 0.82 µM.
`O=C1C2=C(CCN(Cc3cccc(OC(F)(F)F)c3)C2)N2CCN=C2N1Cc1ccc(C(F)(F)F)cc1` [Compound 21] gave an IC50 [1, 5] of 0.37 µM and an IC50 [2, 6] of 0.27 µM.
`C#Cc1ccc(CN2CCC3=C(C2)C(=O)N(Cc2ccc(Cl)cc2)C2=NCCN23)cc1` [Compound 22] showed an IC50 [1, 5] of 1.8 µM and an IC50 [2, 6] of 3.4 µM.
For `O=C1C2=C(CCN(Cc3ccc(F)cc3)C2)N2CCN=C2N1Cc1ccc(Br)cc1` [Compound 23], the IC50 [1, 5] was 0.36 µM and the IC50 [2, 6] was 0.61 µM.
`O=C1C2=C(CCN(Cc3cccc(C(F)(F)F)c3)C2)N2CCN=C2N1Cc1ccc(C(F)(F)F)cc1` [Compound 24] gave an IC50 [1, 5] of 0.087 µM and an IC50 [2, 6] of 0.22 µM.
`O=C1C2=C(CCN(Cc3cccs3)C2)N2CCN=C2N1Cc1ccc(Cl)cc1` [Compound 25] showed an IC50 [1, 5] of 1.7 µM and an IC50 [2, 6] of 0.71 µM.
Molecule `O=C1C2=C(CCN(Cc3ccsc3)C2)N2CCN=C2N1Cc1ccc(Cl)cc1` [Compound 26] has an IC50 [1, 5] of 0.57 µM and an IC50 [2, 6] of 0.31 µM.
For `Cc1ccccc1CN1C(=O)C2=C(CCN(Cc3ccccc3)C2)N2CCN=C12` [TIC10, 11-benzyl-7-[(2-methylphenyl)methyl]-2,5,7,11-tetraazatricyclo[7.4.0.0^2,6]trideca-1 (9),5-dien-8-one, reference compound], the “Oral Bioavailability (% F)” value [4] was 1.2 % F, the AUC(0-inf) (in vivo) was 3.1 ng·h/mL and the IC50 ([1]; read-out: IC50 (uM, HCT116)) was 2.8 µM. The IC50 ([2]; MDA-MB-231, 48 h, read-out: IC50 (uM, MDA 231)) was 3 µM and the “concentration providing similar reductions in pAkt” value [3] was 10 uM.
